The text below walks through data of paper PMC13197777, “Distinct 2-phenylimidazo[1,2-a]pyridine derivatives that inhibit breast cancer cell proliferation identified as AHR ligands” (iScience, 2026).

The subject of series [1] is MCF-7 luc. Put plainly: Clonogenic assay (clonal expansion), MCF-7 cells expressing wild-type ER. In kind it is cell-based. The following applies: Homo sapiens, MCF7, 336 h. How it is done: (§1) Cells were seeded at a density of 1–2×10^3 cells/well in a 6-well plate and treated with increasing concentrations of the X compounds for 14–21 days. Medium and compounds were renewed every 7 days. The experiments were terminated by fixing the cells with methanol and the colonies formed were visualized after staining with 0.5% crystal violet (w/v) in 20% methanol (v/v). Plates were photographed and the area covered by the colonies was calculated using the ColonyArea Plugin for Fiji (RRID:SCR_003070).[20]

Series [2] deals with MCF-7 luc D538G. Put plainly: Clonogenic assay (clonal expansion), MCF-7 cells with D538G ER mutation. In kind it is cell-based. To be noted: Homo sapiens, MCF7, 336 h. How it is done: as §1
The test system of series [3] is MCF-7 luc Y537S. Nature of the series: Clonogenic assay (clonal expansion), MCF-7 cells with Y537S ER mutation. Format: cell-based. To be noted: Homo sapiens, MCF7, 336 h. How it is done:
as §1

The test system of series [4] is MCF-7 luc D538G and MCF-7 luc Y537S. Put plainly: Clonogenic assay, cells expressing the two mutant ERs (range over both). The following applies: Homo sapiens, MCF7, read-out: IC50 clonal expansion in cells expressing the two mutant ERs. In kind it is cell-based. How it is done: as §1
The test system of series [5] is CTC-ITB-01 cells. Put plainly: cells. Format: cell-based. To be noted: Homo sapiens, read-out: LC50. How it is done:
LC50 values were measured using the CyQUANT NF Cell Proliferation Assay Kit (Thermo Fisher). CTC-ITB-01 cells were plated at a density of 2x10^3 cells/well in 96-well plates and treated the following day with serial dilutions of the test compounds. After incubation for the indicated time, cells were stained with CyQUANT dye according to the manufacturer’s protocol and incubated at 37°C for 30 min. Fluorescence was measured using a Tecan Infinite M Nano+ (excitation: 485 nm; emission: 530 nm). For the calculation of the LC50 the fluorescence was plotted against the Log10 of the inhibitor concentration in nM as x values and the LC50 values were calculated with 95% confidence intervals (n = 4).

Series [6] relates to PDxO#28. Nature of the series: Organoid viability, CellTiter-Glo 3D. In kind it is cell-based, human. The following applies: PDxO#28 in 3D Matrigel, 7 days, increasing doses; same results in PDO#268 and PDO#480. An excerpt: Organoids were generated from patients’ samples and from patient-derived xenograft (PDX) tumors, as previously described.[25] PDX were derived from BCRO#28, an ER^+ breast cancer sample collected from a treatment naive patient. PDO#268 was derived from BCRO#268, an ER^+ breast cancer sample collected from treatment naive patient. PDO#480 was derived from BCRO#480, an ER^+ breast cancer sample collected from a patient subjected to chemotherapy in neo-adjuvant setting. Briefly, tumors freshly explanted from mice were mechanically shredded, digested with collagenase (Merck) and filtered through a 100 μm strainer. Digested material (isolated cells and small cell clusters) was centrifuged and embedded in 3D-matrix drops (reduced growth factor Basement Membrane Extract, BME, R&D systems), then overlaid with breast cancer organoid medium.[25] For 3D survival curves under treatment, organoids were embedded in BME drops and, after 24 - 48 h, drugs were added. Fresh drug-containing medium was replaced on day 4. On day 7 of treatment, CellTiter-Glo 3D Cell Viability Assay (Promega) was added and luminescent signal from viable organoids was recorded on Infinite M1000 Pro instrument (Tecan).
Background: In ATP-based viability assays light output follows the ATP content of the culture.

Series [7] concerns the target T1, ERα full-length (Homo sapiens, UniProt P03372).
T1 construct: 34 nM ERα full-length and 1.4 nM Fluormone EL Red were incubated; purchased ThermoFisher A15884
T1 sequence (P03372 1-595): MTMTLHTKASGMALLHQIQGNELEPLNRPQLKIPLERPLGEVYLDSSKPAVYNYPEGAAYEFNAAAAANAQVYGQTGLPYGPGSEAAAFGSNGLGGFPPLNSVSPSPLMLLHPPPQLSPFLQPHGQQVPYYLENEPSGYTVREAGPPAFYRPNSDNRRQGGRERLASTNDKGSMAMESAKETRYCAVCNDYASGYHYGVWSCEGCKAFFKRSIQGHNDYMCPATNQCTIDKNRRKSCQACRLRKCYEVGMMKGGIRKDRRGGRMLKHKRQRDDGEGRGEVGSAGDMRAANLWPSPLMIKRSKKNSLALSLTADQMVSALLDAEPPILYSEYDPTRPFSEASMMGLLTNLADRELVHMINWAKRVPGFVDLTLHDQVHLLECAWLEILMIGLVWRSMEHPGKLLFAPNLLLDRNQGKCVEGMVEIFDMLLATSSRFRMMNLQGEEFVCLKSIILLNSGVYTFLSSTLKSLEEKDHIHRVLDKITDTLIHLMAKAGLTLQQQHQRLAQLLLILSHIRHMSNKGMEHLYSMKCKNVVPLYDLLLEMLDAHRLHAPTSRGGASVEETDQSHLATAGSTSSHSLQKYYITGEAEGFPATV
Put plainly: PolarScreen ERα Competitor Assay (fluorescence polarization). Format: binding. How it is done:
The PolarScreen Estrogen Receptor-Alpha Competitor Assay, Red (ThermoFisher, A15884) was used to determine if the X compounds bind to ERα. The assay was performed according to the manufacturer’s protocol.
For orientation: In fluorescence polarisation assays a small probe gives low polarisation when free and higher when bound to something large.

The subject of series [8] is ERα LBD or full-length ERα. Nature of the series: Nuclear receptor activity profiling (NAPing), E2-induced ERα-coregulator interaction. Format: biochemical. The following applies: E2 −8.5 logM, compound −5.5 logM, LBD or full-length ER. How it is done: Preparation of assay mixes with ERα recombinant ligand binding domain (LBD) and full-length ERα in MCF-7 extracts and measurement of coregulator recruitment on the NAPing platform (PML, Oss, The Netherlands) was performed as described previously.[68]^,[69] […] Unbound ERα and antibodies were removed by washing. Residual ERα binding to each coregulator motifs was recorded on tiff images and quantified using an R-based analysis software package (PML, Oss, The Netherlands).

For series [9], the system named is MCF-7 cells. Nature of the series: Clonogenic assay in MCF-7 cells with AHR antagonist CH223191. To be noted: MCF-7, 10 nM compound, 1 μM CH223191, 14 days. In kind it is cell-based, human. How it is done:
as §1

On the set-up of series [10]: method as in earlier work. The following applies: IUPAC Digitized pKa Dataset ref 30; cited from earlier work.
Series [11] can be described thus: Thermodynamic solubility, shake-flask method. In kind it is physicochemical. To be noted: HEPES buffer 0.1 M pH 7.4, 21 °C. How it is done:
Thermodynamic solubility was determined using the classical shake-flask method. The solid compound (4 mg) was suspended in 1 mL HEPES buffer (0.1 M, pH 7.4) and constantly stirred at 21 °C for 24 h. […] The injection volume for all analyses was 50 μL and the flow rate was kept at 1 mL/min during the analysis. A mobile phase gradient method was applied as a method with 5% solvent B to 99% solvent B in 5 min, followed by 3 min of elution at 99% solvent B.
Calibration curve was generated from a serial dilution of the respective analyte in DMSO at 2.5, 1.25, 0.625, 0.313, 0.156, 0.078, 0.039 mM starting from a 10 mM DMSO stock solution. Subsequently, 2 μL of each dilution was added to 198 μL of a buffer (HEPES, 0.1 M, pH 7.4)/acetonitrile mixture in a 3:2 ratio yielding final dilutions of 25, 12.5, 6.25, 3.125, 1.562, 0.781, 0.391 μM. These were then subjected to HPLC analysis as described above.
Using the results from the linear regression of the internal calibration measurement points (Figure S5) and the mean AUC values from the saturated aqueous solutions, the concentration C of the analytes in the saturated aqueous solution, expressed in μM, were calculated using Equation 2:(Equation 1) AUC=Slope·C+YIntercept (Equation 2) C=AUC−YIntercept/Slope

Series [12] in a line: Compound stability in aqueous environment. Format: physicochemical. The following applies: 12.5 μM, HEPES pH 7.4/acetonitrile 3:2, 1% DMSO, 21 °C, 5 days. How it is done:
The stability of the compounds was evaluated at a concentration of 12.5 μM in a 3:2 mixture of buffer (HEPES, 0.1 M, pH 7.4) and acetonitrile, with 1% DMSO. Acetonitrile was added because the concentration of 12.5 μM exceeded the thermodynamic solubility of the compounds in the buffer. This addition thereby prevented the formation of precipitates and a gradual decrease in compound concentration during the measurement. The resulting solution was stirred at 21 °C in a sealed vial (crimp neck vials, 5 mL, clear (Cat. No. 548-0611A) in combination with natural rubber septa (548-0565A) and aluminum crimp caps (548-3278A), VWR International) for 5 days. […] The AUC measured was subsequently plotted as a function of the incubation time (Figure S3). No signs of decomposition could be observed over the given time.

For series [13], the system named is ERα in MCF-7 cells. Put plainly: Immunoblot of ERα in MCF-7 cells. Format: cell-based, human. To be noted: MCF-7, 48 h, increasing concentrations up to 1 μM. How it is done: To determine the relative expression of proteins by Western blotting, cells were first washed with ice-cold phosphate buffered saline (PBS). Subsequently, they were lysed in ice-cold NP40 lysis buffer (1%NP-40, 50 mM Tris-HCl, pH 8.0, 150 mM NaCl, 5 mM Ethylenediaminetetraacetic acid [EDTA], 1 mM PMSF) on ice. DNA was degraded by sonification (five pulses at 50 amplitudes). Protein concentration was determined, and equal amounts of protein were separated on a 9% SDS-PAGE gel. The proteins were transferred onto nitrocellulose membrane by a standard Western blotting protocol and the membranes were incubated with the following antibodies: ERα (Santa Cruz Biotechnology, sc-8002, RRID: AB_627558) and PCNA (Santa Cruz Biotechnology, sc-56, RRID: AB_628110), followed by incubation with HRP labeled Goat anti-mouse Immunoglobulins (DAKO, P0447, RRID: AB_2617137).

Series [14] has as its system AHR target genes CYP1A1, CYP1B1, ALDH3A1. To be noted: human, 16 h, 1 µM.
Where [15] appears, read: HEPES buffer, 21 °C, pH 7.4, aqueous buffer, thermodynamic from solid.

In brackets after ≈: the same amount, converted by molar mass. Like-named read-outs stand apart in the source and are kept apart here.

In general, IC50 refers to the midpoint of a concentration-inhibition curve. The thermodynamic solubility is solubility found after equilibrating the solid with the medium.

`C[C@]12CC[C@@H]3c4ccc(O)cc4C[C@@H](CCCCCCCCC[S+]([O-])CCCC(F)(F)C(F)(F)F)[C@H]3[C@@H]1CC[C@@H]2O` (some centres unmarked) [Fulvestrant, reference compound]: the IC50 in [1] (Figure 1B, MCF-7 luc, absence of E2, 14 days) was 0.14 nM; in [1] (Figure 1C, MCF-7 luc + 10 nM E2, 14 days) it was 69.2 nM; in series [1] (Figure 1D, MCF-7 luc, absence of E2, 14 days) it was 0.12 nM; in series [1] (Figure 1E, MCF-7 luc + 10 nM E2, 14 days), 78.1 nM; in [2] (read-out: IC50 clonal expansion, Figure 1B, MCF-7 luc D538G, absence of E2, 14 days), 9.57 nM; in [2] (read-out: IC50 clonal expansion, Figure 1C, MCF-7 luc D538G + 10 nM E2, 14 days), 1910 nM. For the same molecule, the IC50 was found to be 12.2 nM in series [2] (read-out: IC50 clonal expansion, Figure 1D, MCF-7 luc D538G, absence of E2, 14 days); 1910 nM in series [2] (read-out: IC50 clonal expansion, Figure 1E, MCF-7 luc D538G + 10 nM E2, 14 days); 6.6 nM in series [3] (read-out: IC50 clonal expansion, Figure 1B, MCF-7 luc Y537S, absence of E2, 14 days); 150 nM in [3] (read-out: IC50 clonal expansion, Figure 1C, MCF-7 luc Y537S + 10 nM E2, 14 days); 7.47 nM in [3] (read-out: IC50 clonal expansion, Figure 1D, MCF-7 luc Y537S, absence of E2, 14 days); 147 nM in series [3] (read-out: IC50 clonal expansion, Figure 1E, MCF-7 luc Y537S + 10 nM E2, 14 days). Also, the IC50 in series [4] is 6.6 to 9.57 nM. Moreover, the CC50 was 8800 nM in series [5] (48 h) and 6300 nM in series [5] (120 h). In addition, the “organoid viability (survival)” value in series [6] is reported as “modest”. For the same molecule, the “displacement of the Fluormone tracer from ERα” value in [7] is “efficiently displaced the Fluormone tracer”. In addition, in series [8], the “disruption of coactivator peptide binding to E2-liganded ERα” value was “clearly disrupted binding of the coactivator peptides”. Moreover, the “inhibition of colony expansion in the presence of AHR antagonist CH223191” value (“inhibition of colony expansion” below) in series [9] is listed as “inhibited colony growth in the presence of CH223191”.

On to `c1ccn2ccnc2c1` [Imidazo(1,2-a)pyridine], for which the “experimental pKa” value in series [10] is 6.79.

Consider `FC(F)(F)c1cc(Cl)c2nc(-c3ccccc3)cn2c1` [X15696], for which the solubility (thermodynamic) at 24 h in series [11] came out at 5 µM (≈ 1.48 µg/mL); in series [11] (setting [15]), 5.11 µM (≈ 1.52 µg/mL). Besides, the “stability in aqueous environment” value in series [12] is “no obvious decomposition detected”. Besides, the “inhibition of colony expansion” value in series [9] was “clearly abrogated by the AHR antagonist CH223191”. For the same molecule, in series [13], the “ERα destabilization (immunoblot)” value is “most proficient in destabilizing ERα”. Besides, the “expression of AHR target genes (RT-PCR)” value in series [14] is “enhanced the transcriptional activity of the AHR target genes in both MCF-7 and T47D cells”.

Regarding `Fc1ccccc1-c1cn2cc(C(F)(F)F)cc(Cl)c2n1` [X19720], the solubility (thermodynamic) at 24 h in series [11] worked out at 1.4 µM (≈ 0.441 µg/mL); in series [11] (setting [15]), 1.35 µM (≈ 0.425 µg/mL). Besides, in [12], the “stability in aqueous environment” value was “no obvious decomposition detected”. Further, in series [9], the “inhibition of colony expansion” value is “clearly abrogated by the AHR antagonist CH223191”. Further, the “ERα destabilization (immunoblot)” value in series [13] is “most proficient in destabilizing ERα”. Besides, in series [14], the “expression of AHR target genes (RT-PCR)” value is “enhanced the transcriptional activity of the AHR target genes in both MCF-7 and T47D cells”.
